Consider five compounds from patent US12421243B2, “Pharmaceutically effective compounds inhibiting selectively the myosin 2 isoforms” (PRINTNET KERESKEDELMI ÉS SZOLGÁLTATÓ KFT., priority 2018, dated 2025).

The test system of one series is skeletal muscle myosin 2. Conditions: cited from earlier work.
Another series has as its system myosin 2. The note with it: myosin 2 inhibitors, review data; cited from earlier work.
A further series addresses platelet myosin 2 (Homo sapiens, UniProt P35579). Conditions: cited from earlier work.
For series [1], the target named is recombinant human non-muscle myosin 2 NM2C (Homo sapiens, UniProt Q7Z406). The experiment in a line: actomyosin steady state ATPase measurement, NM2C. The format is biochemical. Conditions: for IC50: concentration required for semi-maximal inhibition of ATPase; for inhibition at 5 µM: read-out: % inhibition at 5 μM (or 10 μM if racemate) NM2C, 5 μM (10 μM if racemate); for inhibition at 5 µM / inhibition at 50 µM: ATPase activity; for inhibition at 50 µM: read-out: % inhibition at 50 μM (or 100 μM if racemate) NM2C, 50 μM (100 μM if racemate). The source says: (§1) […]; (ii) the concentration required for semi-maximal inhibition.

In series [2] the target is recombinant Dictyostelium miozin (Dictyostelium) (Dictyostelium discoideum, UniProt P08799). Description: actomyosin steady state ATPase measurement, Dictyostelium myosin. The class given is biochemical. The note with it: for IC50: concentration required for semi-maximal inhibition of ATPase, read-out: IC50 (μM) Dicty; for inhibition at 5 µM: read-out: % inhibition at 5 μM (or 10 μM if racemate) Dicty; for inhibition at 50 µM: read-out: % inhibition at 50 μM (or 100 μM if racemate) Dicty.
From the text: as §1

Series [3] has as its target isolated smooth muscle myosin (UniProt P10587). The class given is biochemical, chamois. The note with it: concentration required for semi-maximal inhibition of ATPase. An excerpt:
(ii) the concentration required for semi-maximal inhibition.

Another series relates to M. quadriceps femoris. The experiment in a line: isometric force measurement of live, anesthetized rat M. quadriceps femoris due to electrical stimulation. The class given is in vivo. On the procedure: The maximum isometric force induced by the stimulation was determined after intraperitoneal injection of some of the compounds of the invention. During the measurement, the following parameters of live anesthetized rats were continuously monitored: • a) heart rate • b) blood flow in the neck arteries • c) respiratory frequency • d) blood oxygen saturation ratio Results from live anesthetized rats are summarized in the table below.

Series [4] has as its system isolated rabbit skeletal muscle myosin (skeletal). Description: actomyosin steady state ATPase measurement, skeletal muscle myosin. The format is biochemical. The note with it: for % inhibition at 5 μM (or 10 μM if racemate) Skeletal: 5 μM (10 μM if racemate); for % inhibition at 5 μM (or 10 μM if racemate) Skeletal / % inhibition at 50 μM (or 100 μM if racemate) Skeletal: ATPase activity; for % inhibition at 50 μM (or 100 μM if racemate) Skeletal: 50 μM (100 μM if racemate); for IC50: concentration required for semi-maximal inhibition of ATPase; for % inhibition. complete Skeletal: maximum value of inhibition of ATPase activity.
From the text: as §1

A short description of series [5]: vital parameters of live anesthetized rats monitored during isometric force measurement. Conditions: anesthetized rat; for Maximum change of vital parameters (%) blood flow: neck arteries. The format is in vivo. On the procedure: The maximum isometric force induced by the stimulation was determined after intraperitoneal injection of some of the compounds of the invention. During the measurement, the following parameters of live anesthetized rats were continuously monitored: • a) heart rate • b) blood flow in the neck arteries • c) respiratory frequency • d) blood oxygen saturation ratio

Series [6] can be described thus: solubility in PBS in the presence of 1% DMSO. The format is physicochemical. Conditions: phosphate buffered saline with 1% DMSO, aqueous buffer, kinetic from dmso stock, PBS w/o Mg, Ca.
Series [7] concerns the target isolated smooth muscle myosin (UniProt P10587). The format is biochemical, chamois. Conditions: for % inhibition at 5 μM (or 10 μM if racemate) Smooth: 5 μM (10 μM if racemate); for % inhibition at 5 μM (or 10 μM if racemate) Smooth / % inhibition at 50 μM (or 100 μM if racemate) Smooth: ATPase activity; for % inhibition at 50 μM (or 100 μM if racemate) Smooth: 50 μM (100 μM if racemate); for % inhibition. complete Smooth: maximum value of inhibition of ATPase activity.

For series [8], the target named is recombinant human non-muscle myosin 2 NM2B (Homo sapiens, UniProt P35580). The experiment in a line: actomyosin steady state ATPase measurement, NM2B. The class given is biochemical.
From the text: as §1

The target in series [9] is T1, isolated porcine cardiac ventricular myocardium (cardiac) (Sus scrofa, UniProt P79293).
T1 construct: isolated porcine cardiac ventricular myocardium (cardiac); from tissue; host or cells: porcine cardiac ventricle
The experiment in a line: actomyosin steady state ATPase measurement, cardiac myosin. The note with it: for IC50: concentration required for semi-maximal inhibition of ATPase; for % inhibition. complete cardiac: maximum value of inhibition of ATPase activity; for inhibition at 5 µM: read-out: % inhibition at 5 μM (or 10 μM if racemate) cardiac, 5 μM (10 μM if racemate); for inhibition at 5 µM / inhibition at 50 µM: ATPase activity; for inhibition at 50 µM: read-out: % inhibition at 50 μM (or 100 μM if racemate) cardiac, 50 μM (100 μM if racemate). The format is biochemical.
From the text: as §1

The target of series [10] is recombinant human non-muscle myosin 2 NM2A (Homo sapiens, UniProt P35579). The experiment in a line: actomyosin steady state ATPase measurement, NM2A. The class given is biochemical. The note with it: for IC50: concentration required for semi-maximal inhibition of ATPase; for inhibition at 5 µM: read-out: % inhibition at 5 μM (or 10 μM if racemate) NM2A, 5 μM (10 μM if racemate); for inhibition at 5 µM / inhibition at 50 µM: ATPase activity; for inhibition at 50 µM: read-out: % inhibition at 50 μM (or 100 μM if racemate) NM2A, 50 μM (100 μM if racemate).
From the text: as §1

Series [11] concerns myosin 1, myosin 5, and myosin 10. The note with it: cited from earlier work.
[12] abbreviates: maximum value of inhibition of ATPase activity.

Chain of isolated smooth muscle myosin (P10587 whole entry): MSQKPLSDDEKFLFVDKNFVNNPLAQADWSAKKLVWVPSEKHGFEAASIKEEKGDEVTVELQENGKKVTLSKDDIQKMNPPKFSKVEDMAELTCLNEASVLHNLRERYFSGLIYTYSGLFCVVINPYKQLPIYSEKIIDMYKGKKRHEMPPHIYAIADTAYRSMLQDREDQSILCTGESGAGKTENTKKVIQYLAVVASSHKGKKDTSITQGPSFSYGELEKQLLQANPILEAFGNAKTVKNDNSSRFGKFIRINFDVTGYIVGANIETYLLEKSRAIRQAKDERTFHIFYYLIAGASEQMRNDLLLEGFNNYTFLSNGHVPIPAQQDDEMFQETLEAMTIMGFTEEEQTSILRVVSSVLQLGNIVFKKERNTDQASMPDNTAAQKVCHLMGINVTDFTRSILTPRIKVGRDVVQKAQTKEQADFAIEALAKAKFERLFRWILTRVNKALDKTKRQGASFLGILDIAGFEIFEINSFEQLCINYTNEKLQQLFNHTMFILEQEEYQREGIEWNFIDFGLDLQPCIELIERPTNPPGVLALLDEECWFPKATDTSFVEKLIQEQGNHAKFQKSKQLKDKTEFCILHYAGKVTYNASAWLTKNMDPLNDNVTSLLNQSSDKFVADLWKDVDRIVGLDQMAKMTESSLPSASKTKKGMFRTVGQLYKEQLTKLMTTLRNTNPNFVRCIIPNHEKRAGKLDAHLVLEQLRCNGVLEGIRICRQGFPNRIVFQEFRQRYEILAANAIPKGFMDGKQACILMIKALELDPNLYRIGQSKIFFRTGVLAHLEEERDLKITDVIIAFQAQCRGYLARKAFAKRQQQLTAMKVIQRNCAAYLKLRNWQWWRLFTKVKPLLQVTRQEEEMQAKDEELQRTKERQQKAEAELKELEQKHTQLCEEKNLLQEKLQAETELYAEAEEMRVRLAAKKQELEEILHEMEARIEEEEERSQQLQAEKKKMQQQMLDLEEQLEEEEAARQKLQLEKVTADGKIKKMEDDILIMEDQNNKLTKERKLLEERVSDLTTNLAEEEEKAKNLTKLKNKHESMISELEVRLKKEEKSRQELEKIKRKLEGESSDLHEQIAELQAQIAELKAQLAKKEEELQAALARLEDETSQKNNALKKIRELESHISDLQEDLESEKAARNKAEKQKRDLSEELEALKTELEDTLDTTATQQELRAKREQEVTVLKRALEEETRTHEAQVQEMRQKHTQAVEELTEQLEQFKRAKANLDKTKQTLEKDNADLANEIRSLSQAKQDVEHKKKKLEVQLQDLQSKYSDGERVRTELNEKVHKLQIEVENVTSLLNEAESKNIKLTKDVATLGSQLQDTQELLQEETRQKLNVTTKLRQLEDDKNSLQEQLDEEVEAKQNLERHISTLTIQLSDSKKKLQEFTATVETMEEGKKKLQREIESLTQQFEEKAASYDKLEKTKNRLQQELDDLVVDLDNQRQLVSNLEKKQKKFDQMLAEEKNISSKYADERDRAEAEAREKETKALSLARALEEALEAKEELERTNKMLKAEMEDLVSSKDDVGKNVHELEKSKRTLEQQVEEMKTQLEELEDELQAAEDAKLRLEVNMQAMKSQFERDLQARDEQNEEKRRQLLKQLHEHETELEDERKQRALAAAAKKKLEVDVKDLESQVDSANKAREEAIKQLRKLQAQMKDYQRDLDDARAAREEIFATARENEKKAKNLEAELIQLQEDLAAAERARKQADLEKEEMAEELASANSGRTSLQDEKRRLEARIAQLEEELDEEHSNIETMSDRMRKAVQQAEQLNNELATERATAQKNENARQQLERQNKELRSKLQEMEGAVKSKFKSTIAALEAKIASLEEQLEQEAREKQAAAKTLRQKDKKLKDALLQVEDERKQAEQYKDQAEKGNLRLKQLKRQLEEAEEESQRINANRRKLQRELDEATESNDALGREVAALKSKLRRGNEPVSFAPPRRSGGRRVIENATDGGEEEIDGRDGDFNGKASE
Chain of recombinant human non-muscle myosin 2 NM2C (Q7Z406 whole entry): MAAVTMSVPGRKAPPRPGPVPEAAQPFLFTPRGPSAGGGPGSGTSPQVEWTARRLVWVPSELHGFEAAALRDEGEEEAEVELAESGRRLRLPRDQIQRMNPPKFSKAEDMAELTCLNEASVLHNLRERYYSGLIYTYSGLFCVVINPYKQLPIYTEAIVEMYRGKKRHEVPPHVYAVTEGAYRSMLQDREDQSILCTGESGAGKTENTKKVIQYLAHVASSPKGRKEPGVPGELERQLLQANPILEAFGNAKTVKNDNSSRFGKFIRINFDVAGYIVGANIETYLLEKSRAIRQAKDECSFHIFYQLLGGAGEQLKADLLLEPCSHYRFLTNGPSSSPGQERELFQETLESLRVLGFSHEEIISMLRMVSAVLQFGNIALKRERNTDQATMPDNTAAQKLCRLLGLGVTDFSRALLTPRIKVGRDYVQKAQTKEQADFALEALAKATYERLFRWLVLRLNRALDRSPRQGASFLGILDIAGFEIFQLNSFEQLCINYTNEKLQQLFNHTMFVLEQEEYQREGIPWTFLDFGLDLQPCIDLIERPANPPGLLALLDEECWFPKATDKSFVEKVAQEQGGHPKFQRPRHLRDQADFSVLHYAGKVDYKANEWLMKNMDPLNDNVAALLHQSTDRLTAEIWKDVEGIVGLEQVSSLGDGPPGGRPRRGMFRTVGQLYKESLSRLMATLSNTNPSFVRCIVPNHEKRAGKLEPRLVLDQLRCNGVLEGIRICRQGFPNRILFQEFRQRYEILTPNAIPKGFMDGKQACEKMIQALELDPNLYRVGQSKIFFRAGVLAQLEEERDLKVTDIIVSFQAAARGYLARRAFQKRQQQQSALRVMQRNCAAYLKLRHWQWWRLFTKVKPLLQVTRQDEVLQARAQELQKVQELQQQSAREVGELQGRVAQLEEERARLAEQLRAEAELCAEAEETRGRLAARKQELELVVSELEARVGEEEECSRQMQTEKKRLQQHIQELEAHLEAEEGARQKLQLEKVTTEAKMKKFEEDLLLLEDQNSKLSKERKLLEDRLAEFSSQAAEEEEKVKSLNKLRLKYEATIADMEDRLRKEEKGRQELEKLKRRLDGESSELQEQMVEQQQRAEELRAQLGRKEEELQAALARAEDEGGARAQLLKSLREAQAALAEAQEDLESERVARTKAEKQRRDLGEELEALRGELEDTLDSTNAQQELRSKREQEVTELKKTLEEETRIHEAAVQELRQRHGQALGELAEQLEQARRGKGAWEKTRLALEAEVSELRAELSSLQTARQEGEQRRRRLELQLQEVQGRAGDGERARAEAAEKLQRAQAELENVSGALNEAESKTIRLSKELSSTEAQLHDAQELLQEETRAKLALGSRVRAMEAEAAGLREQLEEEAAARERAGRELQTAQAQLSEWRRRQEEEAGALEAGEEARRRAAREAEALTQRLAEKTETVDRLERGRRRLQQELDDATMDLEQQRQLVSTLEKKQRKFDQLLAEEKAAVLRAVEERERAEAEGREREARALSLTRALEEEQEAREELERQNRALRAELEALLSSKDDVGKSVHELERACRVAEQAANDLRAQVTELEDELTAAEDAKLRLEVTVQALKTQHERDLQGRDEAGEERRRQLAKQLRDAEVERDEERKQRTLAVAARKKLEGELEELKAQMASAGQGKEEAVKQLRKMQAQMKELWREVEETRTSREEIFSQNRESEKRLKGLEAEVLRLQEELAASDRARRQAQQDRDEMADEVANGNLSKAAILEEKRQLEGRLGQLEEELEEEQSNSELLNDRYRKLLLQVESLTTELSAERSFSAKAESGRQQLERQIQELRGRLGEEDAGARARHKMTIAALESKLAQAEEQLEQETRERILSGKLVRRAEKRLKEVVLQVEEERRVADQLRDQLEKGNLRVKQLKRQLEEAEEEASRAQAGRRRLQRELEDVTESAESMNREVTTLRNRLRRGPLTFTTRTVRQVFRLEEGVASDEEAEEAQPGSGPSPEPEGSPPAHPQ

Consider `CC(=O)/C(C)=N/O` [BDM, 2,3-butanedione monoxime], for which the IC50 in the series with skeletal muscle myosin 2 (skeletal muscle myosin 2, binds weakly) is roughly 5000 µM. Also, in the series with myosin 2, the Binding strength is reported as roughly 5 mM.

`Cc1ccc(S(=O)(=O)NCc2ccccc2)cc1` [BTS, N-Benzyl-p-toluenesulfonamide]: the “inhibition of platelet myosin 2” value on platelet myosin 2 is recorded as “does not inhibit”. Moreover, the “inhibits fast muscle skeletal myosin-2 times more stronger than slow skeletal muscle myosin-2, myocardial myosin-2 or non-muscle myosin 2” value in the series on skeletal muscle myosin 2 (selectivity among myosin 2 isoforms) is listed as 100 times. The Binding strength with myosin 2 is roughly 0.005 mM.

In the case of `O=C1c2ccncc2N=C2N(c3ccccc3)CCC12O` (stereo not drawn) [Compound 174, 3a-Hydroxy-1-phenyl-1H,2H,3H,3aH,4H-pyrrolo[2,3-b]1,7-naphthyridin-4-one], in series [1], the IC50 worked out at 2 µM, the inhibition at 5 µM came out at 7% and the inhibition at 50 µM came to 9%. Moreover, in series [2], the IC50 came out at 10 µM, the inhibition at 5 µM is 7% and the inhibition at 50 µM turned out to be 17%. In series [2] (maximum inhibition, compounds in IC50 range 1-11 μM), the “Inhibition (%) Dicty” value was found to be 20%. The “% inhibition. complete Dicty” value in series [2] (setting [12]) is recorded as 20%. The same compound had an IC50 in [3] greater than 100 µM. Also, in the series with M. quadriceps femoris (6 mg i.p.), the “Maximum change in isometric force at rear leg (%)” value (“Maximum change … at rear leg (%)” below) was determined as 25%. Besides, in [4], the “% inhibition at 5 μM (or 10 μM if racemate) Skeletal” value was 25%, the “% inhibition at 50 μM (or 100 μM if racemate) Skeletal” value came out at 77%, the IC50 worked out at 17 µM and the “% inhibition. complete Skeletal” value is reported as 100%. Moreover, in series [5] (6 mg i.p.), the “Maximum change of vital parameters (%) heart rate” value (“Maximum change … (%) heart rate” below) was found to be 3%, the “Maximum change of vital parameters (%) oxygen saturation” value (“Maximum change … (%) oxygen saturation” for short) is listed as −19%, the “Maximum change of vital parameters (%) respiratory frequency” value (“Maximum change … (%) respiratory frequency” for short) was −20% and the “Maximum change of vital parameters (%) blood flow” value (“Maximum change … (%) blood flow” for short) is listed as 4%. Also, the solubility in series [6] is no less than 1000 µM. For the same compound, in [7], the “% inhibition at 5 μM (or 10 μM if racemate) Smooth” value was 1%, the “% inhibition at 50 μM (or 100 μM if racemate) Smooth” value was 6% and the “% inhibition. complete Smooth” value is listed as 51%. In addition, in series [8] (concentration required for semi-maximal inhibition of ATPase), the IC50 amounted to 15 µM. Besides, in [8] (setting [12]), the “% inhibition. complete NM2B” value is 12%. The inhibition at 5 µM in series [8] (read-out: % inhibition at 5 μM (or 10 μM if racemate) NM2B, 5 μM (10 μM if racemate), ATPase activity) worked out at 2%. Further, the inhibition at 50 µM in series [8] (read-out: % inhibition at 50 μM (or 100 μM if racemate) NM2B, 50 μM (100 μM if racemate), ATPase activity) was determined as 9%. Besides, in series [9], the IC50 is greater than 100 µM, the “% inhibition. complete cardiac” value was 100%, the inhibition at 5 µM worked out at 2% and the inhibition at 50 µM is 15%. For the same compound, in [10], the IC50 amounted to 1 µM, the inhibition at 5 µM turned out to be 12% and the inhibition at 50 µM came out at 9%.

For the compound `Cc1cc2c(s1)N=C1N(c3ccc(N4CCOCC4)cc3)CCC1(O)C2=O` (stereo not drawn) [Compound 220, 9-Hydroxy-5-methyl-12-[4-(morpholin-4-yl)phenyl]-4-thia-2,12-diazatricyclo[7.3.0.0^3,7]dodeca-1,3(7),5-trien-8-one], in series [1], the IC50 is 1.8 µM, the inhibition at 5 µM came out at 19% and the inhibition at 50 µM is 21%. Also, the “Inhibition (%) NM2C” value in [1] (maximum inhibition, compounds in IC50 range 1-5 μM) came out at 24%. Besides, in series [1] (setting [12]), the “% inhibition. complete NM2C” value came to 24%. In [2], the IC50 is greater than 100 µM, the inhibition at 5 µM was 0% and the inhibition at 50 µM was found to be 0%. In [3], this compound yielded an IC50 of 2.3 µM. In the series with M. quadriceps femoris (1 mg i.p.), the “Maximum change … at rear leg (%)” value is listed as 19%. In addition, the “Maximum change … at rear leg (%)” value with M. quadriceps femoris (3 mg i.p.) is 23%. Also, the “Maximum change … at rear leg (%)” value in the series with M. quadriceps femoris (6 mg i.p.) is reported as 42%. In addition, in [4], the “% inhibition at 5 μM (or 10 μM if racemate) Skeletal” value is 86%, the “% inhibition at 50 μM (or 100 μM if racemate) Skeletal” value is reported as 94%, 0.49 µM corresponded to half-maximal inhibition (IC50) and the “% inhibition. complete Skeletal” value turned out to be 96%. Besides, in [5] (1 mg i.p.), the “Maximum change … (%) heart rate” value was 1%, the “Maximum change … (%) oxygen saturation” value is −1%, the “Maximum change … (%) respiratory frequency” value is recorded as −13% and the “Maximum change … (%) blood flow” value is 8%. In series [5] (3 mg i.p.), the “Maximum change … (%) heart rate” value was determined as 8%, the “Maximum change … (%) oxygen saturation” value is −17%, the “Maximum change … (%) respiratory frequency” value is recorded as −21% and the “Maximum change … (%) blood flow” value is reported as 19%. In [5] (6 mg i.p.), the “Maximum change … (%) heart rate” value is reported as 22%, the “Maximum change … (%) oxygen saturation” value was −28%, the “Maximum change … (%) respiratory frequency” value is recorded as −22% and the “Maximum change … (%) blood flow” value is recorded as −1%. Moreover, in series [5] (10 mg i.p.), the “Maximum change … (%) heart rate” value was determined as 3%, the “Maximum change … (%) oxygen saturation” value is reported as −41%, the “Maximum change … (%) respiratory frequency” value is given as −30% and the “Maximum change … (%) blood flow” value is given as −3%. Besides, in series [6], the solubility was 710 µM. In addition, in series [7], the “% inhibition at 5 μM (or 10 μM if racemate) Smooth” value is on record as 34%, the “% inhibition at 50 μM (or 100 μM if racemate) Smooth” value was determined as 54% and the “% inhibition. complete Smooth” value was 51%. Also, in series [9], the IC50 stood at 5.6 µM, the “% inhibition. complete cardiac” value worked out at 39%, the inhibition at 5 µM came out at 17% and the inhibition at 50 µM was 37%. In addition, the “Inhibition (%) cardiac” value in series [9] (maximum inhibition, compounds in IC50 range 3-6 μM) was determined as 39%. In addition, in series [10], the IC50 is 0.93 µM, the inhibition at 5 µM came to 16% and the inhibition at 50 µM was 22%. Moreover, in series [10] (setting [12]), the “% inhibition. complete NM2A” value is 20%.

Take `Cc1ccc2c(c1)C(=O)[C@]1(O)CCN(c3ccccc3)C1=N2` [blebbistatin]: in series [11], the “inhibition of myosin 1, myosin 5, and myosin 10” value is recorded as “does not inhibit”.

What is called IC50 is the point on the concentration scale where inhibition reaches its midpoint. The inhibition is the percentage by which the read-out fell short of the control. A word on the % inhibition: it is the change of the read-out against control, counted positive when it falls. In general, solubility refers to the dissolved amount per volume that the medium holds.
